Source: patent US11634447B2 (priority 2012, dated 2023)
pIC50: −log10 of the molar value.

The molecules below were run on bacterial strain LF82 binding to the glycoprotein BSA-(Mannose)3 (assay: Bacterial Binding Assay (BBA)). Settings: read-out: Bacterial Binding Assay IC50, LF82/Luciferase strain binding to BSA-(Man)3 coated plates, luminescence.
Assay type: cell-based, Escherichia coli
Summary of the method: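 Inhibition of LF82/luciferase E. coli adhesion is read as luminescence after washing off unbound cells. Compound and bacteria (10^7 per well) are co-incubated 40-75 min at room temperature on wells coated with 0.5-2 μg/mL BSA-(Man)3, with BSA-only wells as background; IC50 values derived.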

| SMILES | pIC50 |
| --- | --- |
| O=S1(=O)c2cc(C#C[C@H]3O[C@H](CO)[C@@H](O)[C@H](O)[C@@H]3O)ccc2-c2ccc(C#C[C@H]3O[C@H](CO)[C@@H](O)[C@H](O)[C@@H]3O)cc21 [Compound 161, (2R,3S,4R,5S,6R)-2-[2-[5,5-dioxo-7-[2-[(2R,3S,4R,5S,6R)-3,4,5-trihydroxy-6-(hydroxymethyl)tetrahydropyran-2-yl]ethynyl]dibenzothiophen-3-yl]ethynyl]-6-(hydroxymethyl)tetrahydropyran-3,4,5-triol] | 7.92 |
| COc1cc([C@H]2O[C@H](CO)[C@@H](O)[C@H](O)[C@@H]2O)ccc1-c1ccc([C@H]2O[C@H](CO)[C@@H](O)[C@H](O)[C@@H]2O)c(C)c1 [Compound 147] | 6.87 |
| OCCn1c2cc(C#C[C@H]3O[C@H](CO)[C@@H](O)[C@H](O)[C@@H]3O)ccc2c2ccc(C#C[C@H]3O[C@H](CO)[C@@H](O)[C@H](O)[C@@H]3O)cc21 [Compound 182, (2R,3 S,4R,5S,6R)-2-[2-[9-(2-Hydroxyethyl)-7-[2-[(2R,3 S,4R,5S,6R)-3,4,5-trihydroxy-6-(hydroxymethyl)tetrahydropyran-2-yl]ethynyl]carbazol-2-yl]ethynyl]-6-(hydroxymethyl)tetrahydropyran-3,4,5-triol] | 8.85 |
| OC[C@H]1O[C@H](C#Cc2ccc3c(c2)C2(CCNCC2)c2cc(C#C[C@H]4O[C@H](CO)[C@@H](O)[C@H](O)[C@@H]4O)ccc2-3)[C@@H](O)[C@@H](O)[C@@H]1O [Compound 192, (2R,3S,4R,5S,6R)-2-(Hydroxymethyl)-6-[2-[7-[2-[(2R,3S,4R,5S,6R)-3,4,5-trihydroxy-6-(hydroxymethyl)tetrahydropyran-2-yl]ethynyl]spiro[fluorene-9,4piperidine]-2-yl]ethynyl]tetrahydropyran-3,4,5-triol] | 8.49 |
| OC[C@H]1O[C@H](c2ccc(C#C[C@H]3O[C@H](CO)[C@@H](O)[C@H](O)[C@@H]3O)c(F)c2)[C@@H](O)[C@@H](O)[C@@H]1O [Compound 144] | 6.63 |
| CN1CCN(C(=O)Cn2c3cc(C#C[C@H]4O[C@H](CO)[C@@H](O)[C@H](O)[C@@H]4O)ccc3c3ccc(C#C[C@H]4O[C@H](CO)[C@@H](O)[C@H](O)[C@@H]4O)cc32)CC1 [Compound 179, 2-[2,7-bis[2-[(2R,3S,4R,5S,6R)-3,4,5-trihydroxy-6-(hydroxymethyl)tetrahydropyran-2-yl]ethynyl]carbazol-9-yl]-1-(4-methylpiperazin-1-yl)ethanone] | 8.15 |
| O=C1CCCN1CCn1c2cc(C#C[C@H]3O[C@H](CO)[C@@H](O)[C@H](O)[C@@H]3O)ccc2c2ccc(C#C[C@H]3O[C@H](CO)[C@@H](O)[C@H](O)[C@@H]3O)cc21 [Compound 190, 1-[2-[2,7-bis[2-[(2R,3S,4R,5S,6R)-3,4,5-trihydroxy-6-(hydroxymethyl)tetrahydropyran-2-yl]ethynyl]carbazol-9-yl]ethyl]pyrrolidin-2-one] | 8.96 |
| COc1cc([C@H]2O[C@H](CO)[C@@H](O)[C@H](O)[C@@H]2O)ccc1C#C[C@H]1O[C@H](CO)[C@@H](O)[C@H](O)[C@@H]1O [Compound 145] | 6.37 |
| COCc1cc(C#C[C@H]2O[C@H](CO)[C@@H](O)[C@H](O)[C@@H]2O)ccc1C#C[C@H]1O[C@H](CO)[C@@H](O)[C@H](O)[C@@H]1O [Compound 79, (2R,3S,4R,5S,6R)-2-(hydroxymethyl)-6-[2-[3-(methoxymethyl)-4-[2-[(2R,3S,4R,5S,6R)-3,4,5-trihydroxy-6-(hydroxymethyl)tetrahydropyran-2-yl]ethynyl]phenyl]ethynyl]tetrahydropyran-3,4,5-triol] | 7.43 |
| OC[C@H]1O[C@H](C#Cc2ccc(C#C[C@H]3O[C@H](CO)[C@@H](O)[C@H](O)C3O)cc2)[C@@H](O)[C@@H](O)[C@@H]1O (stereo in doubt) [Compound 69, (2R,3 S,4R,5R,6R)-2-(hydroxymethyl)-6-[2-[4-[2-[(2R,3 S,4R,5 S,6R)-3,4,5-trihydroxy-6-(hydroxymethyl)tetrahydropyran-2-yl]ethynyl]phenyl]ethynyl]tetrahydropyran-3,4,5-triol] | 7.18 |
| O=C(O)Cn1c2cc(C#C[C@H]3O[C@H](CO)[C@@H](O)[C@H](O)[C@@H]3O)ccc2c2ccc(C#C[C@H]3O[C@H](CO)[C@@H](O)[C@H](O)[C@@H]3O)cc21 [Compound 176, 2-[2,7-Bis[2-[(2R,3S,4R,5S,6R)-3,4,5-trihydroxy-6-(hydroxymethyl)tetrahydropyran-2-yl]ethynyl]carbazol-9-yl]acetic acid] | 8.00 |
| O=C(c1c(C#C[C@H]2O[C@H](CO)[C@@H](O)[C@H](O)[C@@H]2O)ccc2c1C1(CCNCC1)c1cc(C#C[C@H]3O[C@H](CO)[C@@H](O)[C@H](O)[C@@H]3O)ccc1-2)C1(O)CC1 [Compound 227, [2,7-bis[2-[(2R,3S,4R,5S,6R)-3,4,5-trihydroxy-6-(hydroxymethyl)tetrahydropyran-2-yl]ethynyl]spiro[fluorene-9,4piperidine]-1yl]-(1hydroxycyclopropyl)methanone] | 10.22 |
| OC[C@H]1O[C@H](C#Cc2ccc3c4ccc(C#C[C@H]5O[C@H](CO)[C@@H](O)[C@H](O)[C@@H]5O)cc4n(CCN4CCOCC4)c3c2)[C@@H](O)[C@@H](O)[C@@H]1O [Compound 189, (2R,3S,4R,5S,6R)-2-(hydroxymethyl)-6-[2-[9-(2-morpholinoethyl)-7-[2-[(2R,3S,4R,5S,6R)-3,4,5-trihydroxy-6-(hydroxymethyl)tetrahydropyran-2-yl]ethynyl]carbazol-2-yl]ethynyl]tetrahydropyran-3,4,5-triol] | 8.11 |
| OC[C@H]1O[C@H](C#Cc2ccc3c(c2)CCc2cc(C#C[C@H]4O[C@H](CO)[C@@H](O)[C@H](O)[C@@H]4O)ccc2-3)[C@@H](O)[C@@H](O)[C@@H]1O [Compound 117, (2R,3S,4R,5S,6R)-2-(hydroxymethyl)-6-[2-[7-[2-[(2R,3S,4R,5S,6R)-3,4,5-trihydroxy-6-(hydroxymethyl)tetrahydropyran-2-yl]ethynyl]-9,10-dihydrophenanthren-2-yl]ethynyl]tetrahydropyran-3,4,5-triol] | 7.64 |
| CC(C)c1cc(C#C[C@H]2O[C@H](CO)[C@@H](O)[C@H](O)[C@@H]2O)ccc1C#C[C@H]1O[C@H](CO)[C@@H](O)[C@H](O)[C@@H]1O [Compound 103, (2R,3S,4R,5S,6R)-2-(hydroxymethyl)-6-[2-[3-isopropyl-4-[2-[(2R,3S,4R,5S,6R)-3,4,5-trihydroxy-6-(hydroxymethyl)tetrahydropyran-2-yl]ethynyl]phenyl]ethynyl]tetrahydropyran-3,4,5-triol] | 8.13 |
| Cn1cc(C(=O)c2c(C#C[C@H]3O[C@H](CO)[C@@H](O)[C@H](O)[C@@H]3O)ccc3c2C2(CCNCC2)c2cc(C#C[C@H]4O[C@H](CO)[C@@H](O)[C@H](O)[C@@H]4O)ccc2-3)cn1 [Compound 245, [2,7-bis[2-[(2R,3S,4R,5S,6R)-3,4,5-trihydroxy-6-(hydroxymethyl)tetrahydropyran-2-yl]ethynyl]spiro[fluorene-9,4piperidine]-1yl]-(1-methylpyrazol-4-yl)methanone] | 9.85 |
| COc1cc(-c2ccc([C@H]3O[C@H](CO)[C@@H](O)[C@H](O)[C@@H]3O)cc2)ccc1[C@H]1O[C@H](CO)[C@@H](O)[C@H](O)[C@@H]1O [Compound 151] | 6.73 |
| OC[C@H]1O[C@H](C#Cc2ccc3c(c2)sc2cc(C#C[C@H]4O[C@H](CO)[C@@H](O)[C@H](O)[C@@H]4O)ccc23)[C@@H](O)[C@@H](O)[C@@H]1O [Compound 109, (2R,3S,4R,5S,6R)-2-(hydroxymethyl)-6-[2-[7-[2-[(2R,3S,4R,5S,6R)-3,4,5-trihydroxy-6-(hydroxymethyl)tetrahydropyran-2-yl]ethynyl]dibenzothiophen-3-yl]ethynyl]tetrahydropyran-3,4,5-triol] | 7.70 |
| OC[C@H]1O[C@H](C#Cc2ccc3c(c2)C(O)c2cc(C#C[C@H]4O[C@H](CO)[C@@H](O)[C@H](O)[C@@H]4O)ccc2-3)[C@@H](O)[C@@H](O)[C@@H]1O (stereo partly drawn) [Compound 195, (2R,3S,4R,5S,6R)-2-(hydroxymethyl)-6-[2-[9-hydroxy-7-[2-[(2R,3S,4R,5S,6R)-3,4,5-trihydroxy-6-(hydroxymethyl)tetrahydropyran-2-yl]ethynyl]-9H-fluoren-2-yl]ethynyl]tetrahydropyran-3,4,5-triol] | 7.74 |
| OC[C@H]1O[C@H](C#Cc2ccc(C#C[C@H]3O[C@H](CO)[C@@H](O)[C@H](O)[C@@H]3O)c(Cl)c2)[C@@H](O)[C@@H](O)[C@@H]1O [Compound 102, (2R,3S,4R,5S,6R)-2-[2-[3-chloro-4-[2-[(2R,3S,4R,5S,6R)-3,4,5-trihydroxy-6-(hydroxymethyl)tetrahydropyran-2-yl]ethynyl]phenyl]ethynyl]-6-(hydroxymethyl)tetrahydropyran-3,4,5-triol] | 7.62 |
| O=C(CN1CCOCC1)N1CCC2(CC1)c1cc(C#C[C@H]3O[C@H](CO)[C@@H](O)[C@H](O)[C@@H]3O)ccc1-c1ccc(C#C[C@H]3O[C@H](CO)[C@@H](O)[C@H](O)[C@@H]3O)cc12 [Compound 221, 1-[2,7-bis[2-[(2R,3S,4R,5S,6R)-3,4,5-trihydroxy-6-(hydroxymethyl)tetrahydropyran-2-yl]ethynyl]spiro[fluorene-9,4piperidine]-1l]-2-morpholino-ethanone] | 10.40 |
| OC[C@H]1O[C@H](C#Cc2ccc(C#C[C@H]3O[C@H](CO)[C@@H](O)[C@H](O)[C@@H]3O)c(OC(F)(F)F)c2)[C@@H](O)[C@@H](O)[C@@H]1O [Compound 87, (2R,3S,4R,5S,6R)-2-(hydroxymethyl)-6-[2-[3-(trifluoromethoxy)-4-[2-[(2R,3S,4R,5S,6R)-3,4,5-trihydroxy-6-(hydroxymethyl)tetrahydropyran-2-yl]ethynyl]phenyl]ethynyl]tetrahydropyran-3,4,5-triol] | 7.77 |
